From patent publication US20170305893A1 (Thomas Helledays Stiftelse for Medicinsk Forskning, priority 2014, published 2017)

Test system: human cancer cell lines
Assay: not given
Details: three types of human cancer cell lines; cited from earlier work

Row | Molecule | antiproliferative activity
1 | COc1cc(C(=O)n2ccc3c([N+](=O)[O-])c(OC)ccc32)cc(OC)c1OC [(5-methoxy-4-nitroindol-1-yl)(3,4,5-trimethoxy-phenyl)methanone] | does not show any activity

Target: T1, DCTPP1 (Homo sapiens, UniProt Q9H773)
T1 sequence (Q9H773 1-170): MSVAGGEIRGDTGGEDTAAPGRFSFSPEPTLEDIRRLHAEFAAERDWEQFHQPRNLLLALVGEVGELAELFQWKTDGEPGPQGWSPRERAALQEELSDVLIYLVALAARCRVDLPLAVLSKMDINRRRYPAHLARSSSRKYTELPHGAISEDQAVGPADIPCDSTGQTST
Assay: DCTPP1 inhibition assay (malachite green)
Format: biochemical
Details: 35 nM DCTPP1, 35 μM dCTP, 20 minutes at 22° C.; read-out: IC50
Procedure: DCTPP1 catalyzes the hydrolysis of dCTP to dCMP and PPi. By coupling the reaction to pyrophosphatase added in excess PPi is converted to Pi that can be detected by using the malachite green assay reagent. […] DCTPP1 diluted in assay buffer (100 mM Tris-acetate, 100 mM KCl, 10 mM magnesium acetate, 1 mM DTT and 0.005% Tween 20) fortified with E. coli pyrophosphatase (0.2 U/mL) is added to a final concentration of 35 nM. dCTP diluted in assay buffer is added to a final concentration of 35 μM. The reaction mixture is incubated with shaking for 20 minutes at 22° C. To 100 μl reaction mixture is added […] Malachite green assay reagent (0.095% Malachite green in 17% H2SO4, 1.5% Ammonium molybdate, 0.17% Tween 20) added followed by incubation with shaking for 15 minutes at 22° C. The absorbance of the assay plate is read at 630 nm using a SpectraMax plate reader (Molecular Devices).

Row | IC50 | Molecule
2 | 47 nM | Cc1nc2c([N+](=O)[O-])c(Cl)c(Cl)cc2n1Cc1ccc(B(O)O)cc1 [Compound 2.2.44, (4-((5,6-dichloro-2-methyl-4-nitro-1H-benzo[d]imidazol-1-yl)methyl)phenyl)boronic acid]
3 | 74 nM | Cc1nc2c([N+](=O)[O-])c(Cl)c(Cl)cc2n1S(=O)(=O)c1ccccc1 [Compound 2.2.17, 5,6-dichloro-2-methyl-4-nitro-1-(phenylsulfonyl)-1H-benzo[d]imidazole]
4 | 44 nM | Cc1nc2c([N+](=O)[O-])c(Cl)c(Cl)cc2n1Cc1ccc(B2OC(=O)CN(C)CC(=O)O2)cc1 [Compound 2.2.50, 2-(4-((5,6-dichloro-2-methyl-4-nitro-1H-benzo[d]imidazol-1-yl)methyl)phenyl)-6-methyl-1,3,6,2-dioxazaborocane-4,8-dione]
5 | 206 nM | O=[N+]([O-])c1cccc2c1nc(C(F)(F)F)n2Cc1ccc(B(O)O)cc1 [Compound 2.2.8, (4-((4-nitro-2-(trifluoromethyl)-1H-benzo[d]imidazol-1-yl)methyl)phenyl)boronic acid]

Row | Molecule | IC50
6 | 5,6-dichloro-2-methyl-4-nitro-1-(4-(trifluoro-l4-boranyl)benzyl)-1H-benzo[d]imidazole [Compound 2.2.48] | 39 nM

Same assay, conditions: 35 nM DCTPP1, 35 μM dCTP, 20 minutes at 22° C.; read-out: IC50 (nM), class

Row | IC50 | Molecule
7 | < 100 nM | Cc1nc2c([N+](=O)[O-])c(Cl)c(Cl)cc2n1S(=O)(=O)c1ccccc1 [Compound 2.2.17, 5,6-dichloro-2-methyl-4-nitro-1-(phenylsulfonyl)-1H-benzo[d]imidazole]
8 | ≥ 1000 nM | COc1ccc(Cn2c(OC)nc3cccc([N+](=O)[O-])c32)cc1 [Compound 2.3.2, 2-methoxy-1-(4-methoxybenzyl)-7-nitro-1H-benzo[d]imidazole]
9 | ≥ 1000 nM | COc1ccc(Cn2c(Cc3ccccc3)nc3c([N+](=O)[O-])cccc32)cc1 [Compound 2.2.3, 2-benzyl-1-(4-methoxybenzyl)-4-nitro-1H-benzo[d]imidazole]
10 | ≥ 1000 nM | COc1ccc(Cn2c(-c3ccccc3)nc3cccc([N+](=O)[O-])c32)cc1 [Compound 2.3.3, 1-(4-methoxybenzyl)-7-nitro-2-phenyl-1H-benzo[d]imidazole]
11 | 100 to 500 nM | Cc1cc2c(nc(C)n2C(C)c2ccccc2)c([N+](=O)[O-])c1C (stereo not shown) [Compound 2.2.59, 2,5,6-trimethyl-4-nitro-1-(1-phenylethyl)-1H-benzo[d]imidazole]
12 | 100 to 500 nM | O=[N+]([O-])c1cccc2c1nc(C(F)(F)F)n2Cc1ccc(B(O)O)cc1 [Compound 2.2.8, (4-((4-nitro-2-(trifluoromethyl)-1H-benzo[d]imidazol-1-yl)methyl)phenyl)boronic acid]
13 | ≥ 1000 nM | Cc1cc2c(nc(C)n2Cc2cc3c(cc2Cl)OCO3)c([N+](=O)[O-])c1C [Compound 2.2.53, 1-((6-chlorobenzo[d][1,3]dioxol-5-yl)methyl)-2,5,6-trimethyl-4-nitro-1H-benzo[d]imidazole]
14 | 100 to 500 nM | Cc1nc2c([N+](=O)[O-])c(Cl)c(Cl)cc2n1C(=O)c1ccccc1 [Compound 2.2.18, (5,6-dichloro-2-methyl-4-nitro-1H-benzo[d]imidazol-1-yl)(phenyl)methanone]
15 | ≥ 1000 nM | Cc1nc2c([N+](=O)[O-])c(F)c(F)cc2n1C(C)c1ccccc1 (stereo not shown) [Compound 2.2.14, 5,6-difluoro-2-methyl-4-nitro-1-(1-phenylethyl)-1H-benzo[d]imidazole]
16 | < 100 nM | Cc1cc2c(nc(C)n2Cc2ccc(Cl)cc2)c([N+](=O)[O-])c1C [Compound 2.2.55, 1-(4-chlorobenzyl)-2,5,6-trimethyl-4-nitro-1H-benzo[d]imidazole]
17 | 500 to 1000 nM | Cc1nc2cc(F)c(F)c([N+](=O)[O-])c2n1Cc1ccc(B(O)O)cc1 [Compound 2.3.4, (4-((5,6-difluoro-2-methyl-7-nitro-1H-benzo[d]imidazol-1-yl)methyl)phenyl)boronic acid]
18 | ≥ 1000 nM | COc1ccc(Cn2c(OC)nc3c([N+](=O)[O-])cccc32)cc1 [Compound 2.2.5, 2-methoxy-1-(4-methoxybenzyl)-4-nitro-1H-benzo[d]imidazole]
19 | 100 to 500 nM | Cc1nc2c([N+](=O)[O-])c(Cl)c(Cl)cc2n1Cc1ccc(S(C)(=O)=O)cc1 [Compound 2.2.41, 5,6-dichloro-2-methyl-1-(4-(methylsulfonyl)benzyl)-4-nitro-1H-benzo[d]imidazole]
20 | ≥ 1000 nM | COc1ccc(Cn2c(C)nc3c([N+](=O)[O-])cccc32)cc1 [Compound 2.2.1, 1-(4-methoxybenzyl)-2-methyl-4-nitro-1H-benzo[d]imidazole]
21 | 100 to 500 nM | Cc1nc2c([N+](=O)[O-])c(Cl)c(Cl)cc2n1CCc1ccc(B(O)O)cc1 [Compound 2.2.51, (4-(2-(5,6-dichloro-2-methyl-4-nitro-1H-benzo[d]imidazol-1-yl)ethyl)phenyl)boronic acid]
22 | < 100 nM | Cc1nc2c([N+](=O)[O-])c(Cl)c(Cl)cc2n1Cc1ccc(C=NO)cc1 [Compound 2.2.28, 4-((5,6-dichloro-2-methyl-4-nitro-1H-benzo[d]imidazol-1-yl)methyl)benzaldehyde oxime]
23 | 100 to 500 nM | Cc1n[nH]c(C)c1CCn1c(C)nc2c([N+](=O)[O-])c(Cl)c(Cl)cc21 [Compound 2.2.33, 5,6-dichloro-1-(2-(3,5-dimethyl-1H-pyrazol-4-yl)ethyl)-2-methyl-4-nitro-1H-benzo[d]imidazole]
24 | < 100 nM | COc1ccc(Cn2c(C)nc3c([N+](=O)[O-])c(C)c(C)cc32)cc1 [Compound 2.2.54, 1-(4-methoxybenzyl)-2,5,6-trimethyl-4-nitro-1H-benzo[d]imidazole]
25 | < 100 nM | Cc1nc2c([N+](=O)[O-])c(Cl)c(Cl)cc2n1Cc1ccc(O)cc1 [Compound 2.2.25, 4-((5,6-dichloro-2-methyl-4-nitro-1H-benzo[d]imidazol-1-yl)methyl)phenol]

Row | Molecule | IC50
26 | 1-(4-methoxybenzyl)-4-nitro-1H-benzo[d]imidazole [Compound 2.2.62] | ≥ 1000 nM
27 | 5,6-dichloro-2-methyl-4-nitro-1-(4-(trifluoro-l4-boranyl)benzyl)-1H-benzo[d]imidazole [Compound 2.2.48] | < 100 nM
28 | CC1(C)CC(C)(C)c2c1cc1c(cnn1Cc1ccc(B(O)O)cc1)c2[N+](=O)[O-] [Compound 2.2.64] | ≥ 1000 nM
